Tests used:
[1] = 1 n hcl
[2] = Hygroscopicity: mass change after exposing to air moisture; format: physicochemical; conditions: for increase of the mass of the sample: after exposing to air moisture for 6 days

CCCc1nc(C(C)(C)O)c(C(=O)OCc2oc(=O)oc2C)n1Cc1ccc(-c2ccccc2-c2nnn[nH]2)cc1 [partially crystalline or amorphous, olmesartan medoxomil]
solubility in 1 N HCI [1]: up to 7 mg/ml

CCCc1nc(C(C)(C)O)c(C(=O)OCc2oc(=O)oc2C)n1Cc1ccc(-c2ccccc2-c2nnn[nH]2)cc1 [olmesartan medoxomil hemihydrate]
solubility in 1 N HCI [1]: around 3 mg/ml
increase of the mass of the sample ([2]; hemihydrate): did not increase
hygroscopicity (in words) ([2]; compared with the prior art substance): not hydroscopic

CCCc1nc(C(C)(C)O)c(C(=O)OCc2oc(=O)oc2C)n1Cc1ccc(-c2ccccc2-c2nnn[nH]2)cc1 [prior art substance, olmesartan medoxomil]
solubility in 1 N HCI [1]: approximately 2 mg
increase of the mass of the sample [2]: 0,61%
